Data as given in patent publication US8932597B2 (priority 2008, dated 2015).

Assays:
HuM2e antibody 23K12 = type: binding, human
[1] = system: anti-M2 human monoclonal antibody Z3G1; type: binding

Row | Substance | Signal (peptides that bind to 23K21 and 8I10) (HuM2e antibody 23K12) | also measured
1 | 526 (MSLLTECGMSCLCEC; epitope peptide) [compound 526] | 992 | –
2 | 550 (SLLTENETPIRNEWGCRCNDSSD; epitope peptide) [compound 550] | 914 | –
3 | 361 (SCLCECGCSLLTEC; epitope peptide) [compound 361] | 1520 | –
4 | 561 (SCLTEVETPIRNEWGCRCNDSSD; epitope peptide) [compound 561] | 892 | –
5 | 305 (CSCLCEVGMSLLTEC; epitope peptide) [compound 305] | 1925 | –
6 | 489 (MSLLTECGMCLLTEV; epitope peptide) [compound 489] | 1111 | –
7 | 530 (SLLTESETPIRNEWGCRCNDSSD; epitope peptide) [compound 530] | 974 | –
8 | 539 (SLLTEYETPIRNEWGCRCNDSSD; epitope peptide) [compound 539] | 950 | –
9 | 469 (MSLLTECGMSLLTEC; epitope peptide) [compound 469] | 1236 | –
10 | 458 (CSLLTECGSCLTEV; epitope peptide) [compound 458] | 1278 | –
11 | 376 (CSLLTECGMSLLTEC; epitope peptide) [compound 376] | 1445 | –
12 | 486 (SLFTEVETPIRNEWGCRCNDSSD; epitope peptide) [compound 486] | 1156 | –
13 | 554 (CLLTEVGSLLTCV; epitope peptide) [compound 554] | 902 | –
14 | 471 (SLLTEEETPIRNEWGCRCNDSSD; epitope peptide) [compound 471] | 1220 | –
15 | 322 (SKLTEVETPIRNEWGCRCNDSSD; epitope peptide) [compound 322] | 1784 | –
16 | 515 (SLLTEWETPIRNEWGCRCNDSSD; epitope peptide) [compound 515] | 1025 | –
17 | 323 (SLCTEVGSLLTCV; epitope peptide) [compound 323] | 1781 | –
18 | 332 (SALTEVETPIRNEWGCRCNDSSD; epitope peptide) [compound 332] | 1689 | –
19 | 307 (SLCTEVGCLCTCV; epitope peptide) [compound 307] | 1907 | –
20 | 479 (SLLTEDETPIRNEWGCRCNDSSD; epitope peptide) [compound 479] | 1196 | –
21 | 319 (SLLTECGSLLTCV; epitope peptide) [compound 319] | 1800 | –
22 | 308 (MSLCTEVGMCLCTCV; epitope peptide) [compound 308] | 1902 | –
23 | 558 (CSLLTECGMSCLCEC; epitope peptide) [compound 558] | 897 | –

Row | Substance | Signal (peptides that bind to 23K21 and 8I10) (HuM2e antibody 23K12) | also measured
24 | 344 (SMLTEVETPIRNEWGCRCNDSSD; epitope peptide) [compound 344] | 1622 | –
25 | 367 (SLCTEVGSLLTEC; epitope peptide) [compound 367] | 1495 | –
26 | 485 (CSLLTECGMCLCTCV; epitope peptide) [compound 485] | 1168 | –
27 | 601 (SLLTECGSCLTEV; epitope peptide) [compound 601] | 830 | –
28 | 505 (SLLTEKETPIRNEWGCRCNDSSD; epitope peptide) [compound 505] | 1055 | –
29 | 468 (SCLCECGSLLTEC; epitope peptide) [compound 468] | 1244 | –
30 | 548 (CSLLTECGSLCTEV; epitope peptide) [compound 548] | 917 | –
31 | 567 (SLLTECGCSCLCEV; epitope peptide) [compound 567] | 879 | –
32 | 391 (SNLTEVETPIRNEWGCRCNDSSD; epitope peptide) [compound 391] | 1345 | –
33 | 462 (SLLTECGCLLTEV; epitope peptide) [compound 462] | 1259 | –
34 | 540 (SLLTEHETPIRNEWGCRCNDSSD; epitope peptide) [compound 540] | 942 | –
35 | 149 (CTEVETPIRNEWGSRSCLTEVETPIRNEWGSRC; epitope peptide) [compound 149] | 1348 | –
36 | 310 (MSCLCECGMSLLTEC; epitope peptide) [compound 310] | 1887 | –
37 | 655 (SLYTEVETPIRNEWGCRCNDSSD; epitope peptide) [compound 655] | 753 | –
38 | 531 (MSLCTEVGMSLLTEC; epitope peptide) [compound 531] | 970 | –
39 | 362 (CSLLTECGMCLLTEV; epitope peptide) [compound 362] | 1517 | –
40 | 472 (SLLTECGSLCTEV; epitope peptide) [compound 472] | 1218 | –
41 | 507 (SLCTEVETPIRNEWGCRCNDSSD; epitope peptide) [compound 507] | 1050 | –
42 | 331 (MSLLTECGMSLLTCV; epitope peptide) [compound 331] | 1690 | –
43 | 497 (SLLTECGSCLCEC; epitope peptide) [compound 497] | 1077 | –
44 | 523 (SLLTEFETPIRNEWGCRCNDSSD; epitope peptide) [compound 523] | 1009 | –
45 | 475 (MSLLTECGMSLCTEV; epitope peptide) [compound 475] | 1212 | –
46 | 498 (SLLTEMETPIRNEWGCRCNDSSD; epitope peptide) [compound 498] | 1076 | –

Row | Substance | Signal (peptides that bind to 23K21 and 8I10) (HuM2e antibody 23K12) | also measured
47 | 355 (SCLCECGCSLLTEV; epitope peptide) [compound 355] | 1555 | –
48 | 315 (MCLCTCVGCSLLTEC; epitope peptide) [compound 315] | 1823 | –
49 | 378 (SLLTECGSLLTEC; epitope peptide) [compound 378] | 1426 | –
50 | 298 (SLCTEVGSCLCEC; epitope peptide) [compound 298] | 1967 | –
51 | 494 (SLLTEQETPIRNEWGCRCNDSSD; epitope peptide) [compound 494] | 1102 | –
52 | 463 (CSLLTECGSLLTCV; epitope peptide) [compound 463] | 1258 | –
53 | 348 (SLLTECGCSLLTEV; epitope peptide) [compound 348] | 1597 | –
54 | 518 (SYLTEVETPIRNEWGCRCNDSSD; epitope peptide) [compound 518] | 1019 | –
55 | 474 (SLLTECETPIRNEWGCRCNDSSD; epitope peptide) [compound 474] | 1214 | –
56 | 1445 (CVETPIRNEWLLTEVETPICLTEVETPIR; epitope peptide; MISC_FEATURE (1)..(1): C is an attachment site for a CLIP; MISC_FEATURE (10)..(10): W is an attachment site for a CLIP; MISC_FEATURE (11)..(11): L is an attachment site for a CLIP; MISC_FEATURE (29)..(29): R is an attachment site for a CLIP) [compound 1445] | – | Signal (peptides that bind to Z3G1) [1]: 2280
57 | 1580 (SLLEEVETPIRNEWGCRCNDSSD; epitope peptide) [compound 1580] | – | Signal (peptides that show specific binding to Z3G1) [1]: 2420
58 | 1291 (MSLLQEVETPIRNEWGCRCN; epitope peptide) [compound 1291] | – | Signal (peptides that bind to Z3G1) [1]: 2792
59 | 1572 (PLLTEVETPIRNEWGCRCNDSSD; epitope peptide) [compound 1572] | – | Signal (peptides that show specific binding to Z3G1) [1]: 1641
60 | 1392 (SLLCEVETPCRNEWG; epitope peptide) [compound 1392] | – | Signal (peptides that bind to Z3G1) [1]: 2465
61 | 1553 (CLLTEVGSLLCEV; epitope peptide) [compound 1553] | – | Signal (peptides that show specific binding to Z3G1) [1]: 2168
62 | 1328 (MSLLCEVETPCRNE; epitope peptide) [compound 1328] | – | Signal (peptides that bind to Z3G1) [1]: 2652
63 | CSLLTEVGSLLTEV (epitope peptide) [SEQ ID NO: 283] | – | Binding to Z3G1 (in words) [1]: recognized
64 | 1381 (CLLTEVETPCRNEWG; epitope peptide) [compound 1381] | – | Signal (peptides that bind to Z3G1) [1]: 2074
65 | 1363 (SLLCEVETPICNE; epitope peptide) [compound 1363] | – | Signal (peptides that bind to Z3G1) [1]: 1921
66 | 1494 (CLTEVETPIRLLTEVETPICVETPIRNEW; epitope peptide; MISC_FEATURE (1)..(1): C is an attachment site for a CLIP; MISC_FEATURE (10)..(10): R is an attachment site for a CLIP; MISC_FEATURE (11)..(11): L is an attachment site for a CLIP; MISC_FEATURE (29)..(29): W is an attachment site for a CLIP) [compound 1494] | – | Signal (peptides that bind to Z3G1) [1]: 2443
67 | 1293 (MSLLSEVETPIRNEWGCRCN; epitope peptide) [compound 1293] | – | Signal (peptides that bind to Z3G1) [1]: 2790
